Source: patent US7754856B2, “Human sodium-dependent bile acid transporter proteins” (Takeda Pharmaceutical Company Limited, priority 2002, dated 2010)

Target: T1, human TCH230 (Homo sapiens, UniProt Q3KNW5)
T1 construct: expressed in transfected cells
T1 sequence (Q3KNW5 1-377): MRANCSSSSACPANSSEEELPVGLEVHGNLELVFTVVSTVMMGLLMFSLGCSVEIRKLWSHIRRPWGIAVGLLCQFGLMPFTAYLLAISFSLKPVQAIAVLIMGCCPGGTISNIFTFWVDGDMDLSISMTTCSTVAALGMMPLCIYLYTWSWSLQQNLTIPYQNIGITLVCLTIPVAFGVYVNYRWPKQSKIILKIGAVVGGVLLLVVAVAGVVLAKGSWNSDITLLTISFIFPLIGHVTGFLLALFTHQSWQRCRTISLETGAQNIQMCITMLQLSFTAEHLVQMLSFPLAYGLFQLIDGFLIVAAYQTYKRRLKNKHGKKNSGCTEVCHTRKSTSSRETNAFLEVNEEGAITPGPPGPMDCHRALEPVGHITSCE
Assay: Incorporation of labeled steroid sulfates into human TCH230-expressing CHO cell strain
Format: cell-based
Settings: for incorporation into human TCH230 expressing CHO cells (radioactivity): CHO clone No. 19-6, in the presence of 140 mM NaCl (NaCl buffer vs NMDG buffer, vs Mock cells), 37° C., 1 hour, values only in FIG. 17/18; for substrate of the novel sodium-dependent bile acid transporter protein: summary statement in disclosure
Procedure: Incorporation of [6,7-^3H(N)]-estrone sulfate and [1,2,6,7-^3H(N)]-dehydroepiandrosterone sulfate (hereinafter also referred to as [1,2,6,7-^3H(N)]-DHEA-S) into the human TCH230 (SEQ ID NO:1)-expressing CHO cell strain clone No. 19-6 obtained in Example 19 was measured.
The human TCH230 (SEQ ID NO:1) expressing CHO cell strain clone No. 19-6 was inoculated at a density of 4×10^4 cells/well in a 96 well plate, and cultured at 37° C. for 24 hours in MEMα medium (Invitrogen, Inc.) containing 5 mM sodium butyrate. The medium was removed, and the cells were washed 3 times with 150 μL NMDG buffer (140 mM N-methyl-D(−)-glucamine, 5.4 mM KCl, 0.34 mM Na2HPO4, 0.44 mM KH2PO4, 1.26 mM CaCl2, 0.41 mM MgSO4, 0.49 mM MgCl2, 5.55 mM glucose, pH 7.4-7.6), and incubated in 150 μL NMDG buffer at 37° C. for 1 hour. The buffer was replaced with 90 μL NaCl buffer (140 mM NaCl, 5.4 mM KCl, 0.34 mM Na2HPO4, 0.44 mM KH2PO4, 1.26 mM CaCl2, 0.41 mM MgSO4, 0.49 mM MgCl2, 5.55 mM glucose, pH 7.4-7.6) or 90 μL NMDG buffer, followed by adding 10 μL of 2.5 μM estrone sulfate, ammonium salt, [6,7-^3H(N)]— or 1.37 μM dehydroepiandrosterone sulfate, sodium salt, [1,2,6,7-^3H(N)]— (all of which are available from Perkin-Elmer Life Science). The cells were incubated at 37° C. for 1 hour, and the buffer was removed, then washed 3 times with 200 μL PBS (Takara Bio) and lysed with 10 μL of 0.1N NaOH. 100 μL SuperMix scintillator (Perkin-Elmer Life Science) was added thereto and stirred, and the amount of [6,7-^3H(N)]-estrone sulfate or [1,2,6,7-^3H(N)]-DHEA-S incorporated into the cells was measured in terms of radioactivity. This measurement was carried out with 1450 MICROBETA PLUS LIQUID SCINTILLATION COUNTER (Perkin-Elmer Life Science). CHO dhfr− cells into which vector pcDNA3.1(+) had been introduced (also referred to hereinafter as Mock) was also subjected to the same procedure and measured for radioactivity.

| Substance | incorporation into human TCH230 expressing CHO cells (radioactivity) | substrate of the novel sodium-dependent bile acid transporter protein |
| --- | --- | --- |
| [6,7-^3H(N)]-estrone sulfate | incorporate | substrate |
| [1,2,6,7-^3H(N)]-dehydroepiandrosterone sulfate [[1,2,6,7-^3H(N)]-DHEA-S] | incorporate | substrate |
